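Exposure lasted 48 hours, with cells grown in 96-well plates and compounds tested at five concentrations. Abbreviation: GI50, concentration required for 50% inhibition of growth.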 Active and inactive are the calls of the source. Cut-off read from the data, not from the text of the source: active = GI50 up to about 1.1 µM and inactive = higher.
Experiments:
Assay in all cases: NCI-60 cell line screen, 48 h
[1] = system: HCT-15
[2] = system: PC-3
[3] = system: RXF 393
[4] = system: OVCAR-5
[5] = system: NCI-H226
[6] = system: M14
[7] = system: HCT-116
[8] = system: OVCAR-8
[9] = system: UACC-257
[10] = system: SK-MEL-5
[11] = system: DU-145
[12] = system: UO-31
[13] = system: SF-268
[14] = system: LOX IMVI
[15] = system: SN12C
[16] = system: OVCAR-3
[17] = system: MDA-MB-435
[18] = system: A498
[19] = system: NCI-H23
[20] = system: A549
[21] = system: TK-10
[22] = system: NCI/ADR-RES
[23] = system: T47D
[24] = system: HT-29
[25] = system: CAKI-1
[26] = system: SK-OV-3
[27] = system: HCC 2998
[28] = system: HOP-92
[29] = system: MOLT-4
[30] = system: MCF7
[31] = system: Malme-3M
[32] = system: SNB-75
[33] = system: U-251
[34] = system: SK-MEL-2
[35] = system: IGROV-1
[36] = system: CCRF-CEM
[37] = system: BT-549
[38] = system: HOP-62
[39] = system: ACHN
[40] = system: RPMI-8226
[41] = system: HL-60
[42] = system: KM12
[43] = system: SNB-19
[44] = system: SK-MEL-28
[45] = system: SF-295
[46] = system: MDA-MB-231
[47] = system: UACC-62
[48] = system: NCI-H522
[49] = system: K562
[50] = system: SW-620
[51] = system: Hs-578T
[52] = system: MDA-N
[53] = system: COLO 205
[54] = system: NCI-H460
[55] = system: SF-539
[56] = system: EKVX
[57] = system: 786-0

Question: Which GI50 [1] does the source give for `COC(=O)[C@@H]1[C@H]2CC[C@]3(C)[C@@H](OC(C)=O)CC[C@H]3[C@@H]2CC[C@H]1C(C)=O` here?
Answer: > 100 µM

Question: What about the GI50 [2] of the same molecule?
Answer: > 100 µM (inactive)

Question: What about the GI50 [3] of the same molecule?
Answer: > 100 µM (inactive)

Question: And the GI50 [4]?
Answer: > 100 µM (inactive)

Question: What about the GI50 [5] of the same molecule?
Answer: > 100 µM (inactive)

Question: What about the GI50 [6] of the same molecule?
Answer: > 100 µM (inactive)

Question: What about the GI50 [7] of the same molecule?
Answer: > 100 µM (inactive)

Question: What about the GI50 [8] of the same molecule?
Answer: > 100 µM (inactive)

Question: And the GI50 [9]?
Answer: > 100 µM (inactive)

Question: What about the GI50 [10] of the same molecule?
Answer: > 100 µM (inactive)

Question: What about the GI50 [11] of the same molecule?
Answer: > 100 µM (inactive)

Question: What about the GI50 [12] of the same molecule?
Answer: > 100 µM (inactive)

Question: And the GI50 [13]?
Answer: > 100 µM (inactive)

Question: And the GI50 [14]?
Answer: > 100 µM (inactive)

Question: And the GI50 [15]?
Answer: > 100 µM (inactive)

Question: What about the GI50 [16] of the same molecule?
Answer: > 100 µM (inactive)

Question: And the GI50 [17]?
Answer: > 100 µM (inactive)

Question: What about the GI50 [18] of the same molecule?
Answer: > 100 µM (inactive)

Question: What about the GI50 [19] of the same molecule?
Answer: > 100 µM (inactive)

Question: And the GI50 [20]?
Answer: > 100 µM (inactive)

Question: And the GI50 [21]?
Answer: > 100 µM (inactive)

Question: And the GI50 [22]?
Answer: > 100 µM (inactive)

Question: And the GI50 [23]?
Answer: > 100 µM (inactive)

Question: And the GI50 [24]?
Answer: > 100 µM (inactive)

Question: And the GI50 [25]?
Answer: > 100 µM (inactive)

Question: And the GI50 [26]?
Answer: > 100 µM (inactive)

Question: What about the GI50 [27] of the same molecule?
Answer: > 100 µM (inactive)

Question: And the GI50 [28]?
Answer: > 100 µM (inactive)

Question: And the GI50 [29]?
Answer: > 100 µM (inactive)

Question: What about the GI50 [30] of the same molecule?
Answer: > 100 µM (inactive)

Question: What about the GI50 [31] of the same molecule?
Answer: > 100 µM (inactive)

Question: What about the GI50 [32] of the same molecule?
Answer: > 100 µM (inactive)

Question: What about the GI50 [33] of the same molecule?
Answer: > 100 µM (inactive)

Question: What about the GI50 [34] of the same molecule?
Answer: > 100 µM (inactive)

Question: And the GI50 [35]?
Answer: > 100 µM (inactive)

Question: What about the GI50 [36] of the same molecule?
Answer: > 100 µM (inactive)

Question: And the GI50 [37]?
Answer: > 100 µM (inactive)

Question: What about the GI50 [38] of the same molecule?
Answer: > 100 µM (inactive)

Question: And the GI50 [39]?
Answer: > 100 µM (inactive)

Question: What about the GI50 [40] of the same molecule?
Answer: > 100 µM (inactive)

Question: What about the GI50 [41] of the same molecule?
Answer: > 100 µM (inactive)

Question: And the GI50 [42]?
Answer: > 100 µM (inactive)

Question: And the GI50 [43]?
Answer: > 100 µM (inactive)

Question: And the GI50 [44]?
Answer: > 100 µM (inactive)

Question: And the GI50 [45]?
Answer: > 100 µM (inactive)

Question: What about the GI50 [46] of the same molecule?
Answer: > 100 µM (inactive)

Question: And the GI50 [47]?
Answer: > 100 µM (inactive)

Question: What about the GI50 [48] of the same molecule?
Answer: > 100 µM (inactive)

Question: And the GI50 [49]?
Answer: > 100 µM (inactive)

Question: What about the GI50 [50] of the same molecule?
Answer: > 100 µM (inactive)

Question: And the GI50 [51]?
Answer: > 100 µM (inactive)

Question: And the GI50 [52]?
Answer: > 100 µM (inactive)

Question: What about the GI50 [53] of the same molecule?
Answer: > 100 µM (inactive)

Question: And the GI50 [54]?
Answer: > 100 µM (inactive)

Question: And the GI50 [55]?
Answer: > 100 µM (inactive)

Question: What about the GI50 [56] of the same molecule?
Answer: > 100 µM (inactive)

Question: And the GI50 [57]?
Answer: > 100 µM (inactive)

Reference: ChEMBL document CHEMBL1201862, “PubChem BioAssay data set” (2004)
